The target in series [1] is T1, PDE4B2 (Homo sapiens, UniProt Q07343).
T1 construct: made in house; host or cells: SF21 insect cells (baculovirus generated in SF9 cells, pCR-Bac vector)
Put plainly: Inhibition of PDE4B2 activity, modified [3H]cAMP SPA (scintillation proximity assay) test. To be noted: recombinant PDE4B2 expressed in SF21 insect cells; 0.5 μM cAMP; 15 min at 37° C.; read-out: PDE4 Inhibition [measured as -logIC50 (mol/l)] (converted). The format is biochemical. The method, then:
PDE4B2 (GB no. M97515) was a gift of Prof. M. Conti (Stanford University, USA). It was amplified from the original plasmid (pCMV5) via PCR with primers Rb9 (5′-[…]-3′) and Rb10 (5′-[…]-3′) and cloned into the pCR-Bac vector (Invitrogen, Groningen, NL).
The recombinant baculovirus was prepared by means of homologous recombination in SF9 insect cells. The expression plasmids were cotransfected with Bac-N-Blue (Invitrogen, Groningen, NL) or Baculo-Gold DNA (Pharmingen, Hamburg) using a standard protocol (Pharmingen, Hamburg). Wt vrus-free recombinant virus supernatants were selected using plaque assay methods. After that, high-titre virus supernatants were, prepared by amplifying 3 times. PDE4B2 was expressed in SF21 cells by infecting 2×10^6 cells/ml with an MOI (multiplicity of infection) between 1 and 10 in serum-free SF900 medium (Life Technologies, Paisley, UK). The cells were cultured at 28° C. for 48-72 hours, after which they were pelleted for 5-10 min at 1000 g and 4° C.
The SF21 insect cells were resuspended, at a concentration of approx. 10^7 cells/ml, in ice-cold (4° C.) homogenization buffer (20 mM Tris, pH 8.2, containing the following additions: 140 mM NaCl, 3.8 mM KCl, 1 mM EGTA, 1 mM MgCl2, 10 mM β-mercaptoethanol, 2 mM benzamidine, 0.4 mM Pefablock, 10 μM leupeptin, 10 μM pepstatin A, 5 μM trypsin inhibitor) and disrupted by ultrasonication. The homogenate was then centrifuged for 10 min at 1000×g and the supernatant was stored at −80° C. until sub-sequent use (see below). The protein content was determined by the Bradford method (BioRad, Munich) using BSA as the standard.
PDE4B2 activity was inhibited by the compounds according to the invention in a modified SPA (scintillation proximity assay) test, supplied by Amersham Biosciences (see procedural instructions “phosphodiesterase [3H]cAMP SPA enzyme assay, code TRKQ 7090”), carried out in 96-well microtitre plates (MTP's). The test volume is 100 μl and contains 20 mM Tris buffer (pH 7.4), 0.1 mg of BSA (bovine serum albumin)/ml, 5 mM Mg^2+, 0.5 μM cAMP (including about 50,000 cpm of [3H]cAMP), 1 μl of the respective substance dilution in DMSO and sufficient recombinant PDE (1000×g supernatant, see above) to ensure that 10-20% of the cAMP is converted under the said experimental conditions. […] After a preincubation of 5 min at 37° C., the reaction is started by adding the substrate (cAMP) and the assays are incubated for a further 15 min; after that, they are stopped by adding SPA beads (50 μl). In accordance with the manufacturer's instructions, the SPA beads had previously been resuspended in water, but were then diluted 1:3 (v/v) in water; the diluted solution also contains 3 mM IBMX to ensure a complete PDE activity stop. After the beads have been sedimented (>30 min), the MTP's are analyzed in commercially available luminescence detection devices. The corresponding IC50 values of the compounds for the inhibition of PDE4B2 activity are determined from the concentration-effect curves by means of non-linear regression.

T1 sequence (Q07343 1-564 isoform Q07343-2): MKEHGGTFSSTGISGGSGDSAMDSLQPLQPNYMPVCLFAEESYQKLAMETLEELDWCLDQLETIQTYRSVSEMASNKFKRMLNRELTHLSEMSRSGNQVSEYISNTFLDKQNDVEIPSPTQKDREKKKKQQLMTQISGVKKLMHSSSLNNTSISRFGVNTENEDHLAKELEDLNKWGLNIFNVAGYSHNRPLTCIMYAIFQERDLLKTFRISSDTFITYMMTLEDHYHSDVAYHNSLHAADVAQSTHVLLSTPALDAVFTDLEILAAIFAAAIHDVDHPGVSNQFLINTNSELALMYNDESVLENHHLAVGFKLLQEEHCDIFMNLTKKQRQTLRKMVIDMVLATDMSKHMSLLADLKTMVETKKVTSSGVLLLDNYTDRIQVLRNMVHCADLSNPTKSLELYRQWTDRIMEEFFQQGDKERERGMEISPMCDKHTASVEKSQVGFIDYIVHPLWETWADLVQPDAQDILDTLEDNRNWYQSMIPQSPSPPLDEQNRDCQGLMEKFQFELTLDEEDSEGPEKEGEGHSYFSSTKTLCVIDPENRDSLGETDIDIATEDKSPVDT

For the molecule `COc1ccc(C2=NN(C3CCN(S(=O)(=O)c4ccccc4C#N)CC3)C(=O)C(C)(C)C2)cc1OC` [Compound 1], the melting point (usually the temperature, or range, at which the solid turns liquid) was in the range of 190 to 192 °C. For the same molecule, the IC50 in series [1] was 0.295 nM.
Take `COc1ccc(C2=NN(C3CCN(CCC(=O)N4CCOCC4)CC3)C(=O)C(C)(C)C2)cc1OC.Cl` [Compound 2, 6-(3,4-Dimethoxy-phenyl)-4,4-dimethyl-2-[1-(3-morpholin-4-yl-3-oxo-propyl)piperidin-4-yl]-4,5-dihydro-2H-pyridazin-3-one Hydrochloride]: the melting point was 211 to 213 °C. Further, the IC50 in series [1] was 25.1 nM.
Consider `COc1ccc(C2=NN(C3CCN(CC(N)=O)CC3)C(=O)C(C)(C)C2)cc1OC` [Compound 3], for which the IC50 in series [1] is 1.86 nM.
The molecule `COc1ccc(C2=NN(C3CCN(C(=O)CN4C(=O)CCC4=O)CC3)C(=O)C(C)(C)C2)cc1OC` [Compound 4, 1-(2-{4-[3-(3,4-Dimethoxy-phenyl)-5,5-dimethyl-6-oxo-5,6-dihydro-4H-pyridazin-1-yl]-piperidin-1-yl}-2-oxo-ethyl)-pyrrolidine-2,5-dione] showed a melting point of 177 to 179 °C. Moreover, in series [1], the IC50 was 1.29 nM.
Turning to `COc1ccc(C2=NN(C3CCN(S(=O)(=O)c4ccccc4C)CC3)C(=O)C(C)(C)C2)cc1OC` [Compound 5, 6-(3,4-Dimethoxy-phenyl)-4,4-dimethyl-2-[1-(toluene-2-sulfonyl)-piperidin-4-yl]-4,5-dihydro-2H-pyridazin-3-one], the melting point lay within 132 to 133 °C. Also, the IC50 in series [1] is 0.741 nM.
Consider `COc1ccc(C2=NN(C3CCN(S(=O)(=O)c4ccc(C#N)cc4)CC3)C(=O)C(C)(C)C2)cc1OC` [Compound 6, 4-{4-[3-(3,4-Dimethoxy-phenyl)-5,5-dimethyl-6-oxo-5,6-dihydro-4H-pyridazin-1-yl]-piperidine-1-sulfonyl}-benzonitrile], for which the melting point lay within 161 to 163 °C.
On to `COc1ccc(C2=NN(C3CCN(S(=O)(=O)c4ccccc4OC(F)(F)F)CC3)C(=O)C(C)(C)C2)cc1OC` [Compound 7, 6-(3,4-Dimethoxy-phenyl)-4,4-dimethyl-2-[1-(2-trifluoromethoxy-benzenesulfonyl)-piperidin-4-yl]-4,5-dihydro-2H-pyridazin-3-one], for which the melting point is 143 to 144 °C. Further, the IC50 in series [1] is 2.29 nM.
The molecule `COc1ccc(C2=NN(C3CCN(C(=O)c4ccccc4OC)CC3)C(=O)C(C)(C)C2)cc1OC` [Compound 8, 6-(3,4-Dimethoxy-phenyl)-2-{1-[1-(2-methoxy-phenyl)-methanoyl]-piperidin-4-yl}-4,4-dimethyl-4,5-dihydro-2H-pyridazin-3-one] gave a melting point of 157 to 159 °C. In addition, the IC50 in series [1] is 0.209 nM.
Regarding `COc1ccc(C2=NN(C3CCN(S(=O)(=O)c4cccc(C#N)c4)CC3)C(=O)C(C)(C)C2)cc1OC` [Compound 9, 3-{4-[3-(3,4-Dimethoxy-phenyl)-5,5-dimethyl-6-oxo-5,6-dihydro-4H-pyridazin-1-yl]-piperidine-1-sulfonyl}-benzonitrile], the melting point fell in the range of 158 to 160 °C.
Take `COc1ccc(C2=NN(C3CCN(S(=O)(=O)c4ccc(C)cc4)CC3)C(=O)C(C)(C)C2)cc1OC` [Compound 10, 6-(3,4-Dimethoxy-phenyl)-4,4-dimethyl-2-[1-(toluene-4-sulfonyl)-piperidin-4-yl]-4,5-dihydro-2H-pyridazin-3-one]: the melting point was 161 to 164 °C.
`COc1ccc(C2=NN(C3CCN(S(=O)(=O)c4cccc(C)c4)CC3)C(=O)C(C)(C)C2)cc1OC` [Compound 11, 6-(3,4-Dimethoxy-phenyl)-4,4-dimethyl-2-[1-(toluene-3-sulfonyl)-piperidin-4-yl]-4,5-dihydro-2H-pyridazin-3-one] returned a melting point of 150 to 152 °C.
`COc1ccc(C2=NN(C3CCN(S(=O)(=O)N(C)C)CC3)C(=O)C(C)(C)C2)cc1OC` [Compound 12, 4-[3-(3,4-Dimethoxy-phenyl)-5,5-dimethyl-6-oxo-5,6-dihydro-4H-pyridazin-1-yl]-piperidine-1-sulfonic Acid Dimethylamide] returned a melting point of 172 to 174 °C.
In the case of `COc1ccc(C2=NN(C3CCN(CC(N)=O)CC3)C(=O)C(C)(C)C2)c2c1OC(C)(C)C2` [Compound 13, 2-{4-[3-(7-Methoxy-2,2-dimethyl-2,3-dihydro-benzofuran-4-yl)-5,5-dimethyl-6-oxo-5,6-dihydro-4H-pyridazin-1-yl]-piperidin-1-yl}-acetamide], the melting point is 215 to 216 °C. For the same molecule, the IC50 in series [1] is 0.417 nM.
In turn, `CCC1(CC)CC(c2ccc(OC)c(OC)c2)=NN(C2CCN(C(=O)c3ccccc3)CC2)C1=O` [Compound 14, 6-(3,4-Dimethoxy-phenyl)-4,4-diethyl-2-[1-(1-phenyl-methanoyl)-piperidin-4-yl]-4,5-dihydro-2H-pyridazin-3-one] showed a melting point of 160 to 161 °C.
With `CCC1(CC)CC(c2ccc(OC)c(OC)c2)=NN(C2CCN(CC(N)=O)CC2)C1=O.Cl` [Compound 15, 2-{4-[3-(3,4-Dimethoxy-phenyl)-5,5-diethyl-6-oxo-5,6-dihydro-4H-pyridazin-1-yl]-piperidin-1-yl}-acetamide Hydrochloride], the melting point lay in the range of 69 to 74 °C. Moreover, the IC50 in series [1] is 6.17 nM.
For the molecule `CCC1(CC)CC(c2ccc(OC)c(OC)c2)=NN(C2CCN(S(=O)(=O)c3ccccc3C#N)CC2)C1=O` [Compound 16, 2-{4-[3-(3,4-Dimethoxy-phenyl)-5,5-diethyl-6-oxo-5,6-dihydro-4-pyridazin-1-yl]-piperidin-1-sulfonyl}-benzonitrile], the melting point was in the range of 156 to 157 °C. For the same molecule, the IC50 in series [1] was 0.355 nM.
`COc1ccc(C2=NN(C3CCN(C(=O)CN4C(=O)COCC4=O)CC3)C(=O)C(C)(C)C2)cc1OC` [Compound 17, 4-(2-{4-[3-(3,4-Dimethoxy-phenyl)-5,5-dimethyl-6-oxo-5,6-dihydro-4H-pyridazin-1-yl]-piperidin-1-yl}-2-oxo-ethyl)-morpholine-3,5-dione] came in with a melting point of 210 to 211 °C. For the same molecule, the IC50 in series [1] was 0.646 nM.
`CCC1(CC)CC(c2ccc(OC)c(OC)c2)=NN(C2CCN(C(=O)c3ccccc3OC)CC2)C1=O` [Compound 18, 6-(3,4-Dimethoxy-phenyl)-4,4-diethyl-2-{1-[1-(2-methoxy-phenyl)-methanoyl]-piperidin-4-yl}-4,5-dihydro-2H-pyridazin-3-one] yielded a melting point of 160 to 162 °C.
Molecule `COc1ccc(C2=NN(C3CCN(C(=O)CN4CCN(C)CC4)CC3)C(=O)C(C)(C)C2)c2c1OC(C)(C)C2` [Compound 19, 6-(7-Methoxy-2,2-dimethyl-2,3-dihydro-benzofuran-4-yl)-4,4-dimethyl-2-{1-[2-(4-methyl-piperazin-1-yl)-ethanoyl]-piperidin-4-yl}-4,5-dihydro-2H-pyridazin-3-one] returned a melting point of 121 to 123 °C.
In turn, `COc1ccc(C2=NN(C3CCN(C(=O)CN4C(=O)CCC4=O)CC3)C(=O)C(C)(C)C2)c2c1OC(C)(C)C2` [Compound 20, 1-(2-{4-[3-(7-Methoxy-2,2-dimethyl-2,3-dihydro-benzofuran-4-yl)-5,5-dimethyl-6-oxo-5,6-dihydro-4H-pyridazin-1-yl]-piperidin-1-yl}-2-oxo-ethyl)-pyrrolidine-2,5-dione] showed a melting point of 240 to 241 °C.
As for `COc1ccc(C2=NN(C3CCN(C(=O)CN4C(=O)c5ccccc5C4=O)CC3)C(=O)C(C)(C)C2)cc1OC` [Compound 21, 2-(2-{4-[3-(3,4-Dimethoxy-phenyl)-5,5-dimethyl-6-oxo-5,6-dihydro-4H-pyridazin-1-yl]-piperidin-1-yl}-2-oxo-ethyl)-isoindole-1,3-dione], the melting point is 193 to 194 °C.

The record behind these values is patent publication US7820669B2 (NYCOMED GmbH, priority 2004, dated 2010).
